The structures appear in SMILES notation. Read-outs that look alike come from different tables or passages of the source.

The results in this text go back to patent US20230278983A1, “INDOLE DERIVATIVES AND USES THEREOF FOR TREATING A CANCER” (Universite Claude Bernard Lyon 1, priority 2020, published 2023).

The target of the test is CK2 (Homo sapiens (Human), UniProt P68400). The test is described as follows: Radiometric CK2 kinase assay. It is filed as biochemical. As to conditions: for inhibition at 1 µM: compound at 1 μM; for inhibition at 0.1 µM: compound at 0.10 μM.
Chain of CK2 (P68400 whole entry): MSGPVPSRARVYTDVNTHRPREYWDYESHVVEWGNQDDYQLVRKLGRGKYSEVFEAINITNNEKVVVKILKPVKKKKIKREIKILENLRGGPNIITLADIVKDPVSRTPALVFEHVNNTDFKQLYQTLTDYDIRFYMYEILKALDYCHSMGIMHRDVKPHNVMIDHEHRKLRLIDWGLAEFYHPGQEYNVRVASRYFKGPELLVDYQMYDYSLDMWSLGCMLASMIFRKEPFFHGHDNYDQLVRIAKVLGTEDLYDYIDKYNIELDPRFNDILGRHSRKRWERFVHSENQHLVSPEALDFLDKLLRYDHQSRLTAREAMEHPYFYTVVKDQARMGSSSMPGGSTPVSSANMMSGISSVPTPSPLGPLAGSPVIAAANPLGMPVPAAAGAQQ
Where [1] appears, read: inhibition of CK2 activity, ATP 10 μM.

Regarding `CC(C)COC(=O)c1[nH]c2ccc(F)cc2c1-c1cn(CC2CCN(CCNS(=O)(=O)c3ccc4c(c3)CCC4)CC2)nn1` [AB932, isobutyl 3-(1-((1-(2-((2,3-dihydro-1H-indene)-5-sulfonamido)ethyl)piperidin-4-yl)methyl)-1H-1,2,3-triazol-4-yl)-5-fluoro-1H-indole-2-carboxylate], the IC50 is 75 nM. `CC(C)COC(=O)c1[nH]c2ccc(F)cc2c1-c1cn(CC2CCN(CCNS(=O)(=O)c3ccc(Oc4ccccc4)cc3)CC2)nn1` [AB933, isobutyl 5-fluoro-3-(1-((1-(2-((4-phenoxyphenyl)sulfonamido)ethyl)piperidin-4-yl)methyl)-1H-1,2,3-triazol-4-yl)-1H-indole-2-carboxylate] yielded an IC50 under setting [1] of 62 nM. In turn, `CC(C)COC(=O)c1[nH]c2ccc(F)cc2c1-c1cn(CC2CCN(Cc3ccc(-c4ccc5[nH]ccc5c4)c(Cl)c3)CC2)nn1` [AB753, Isobutyl 3-(1-((1-(3-chloro-4-(1H-indol-5-yl)benzyl)piperidin-4-yl)methyl)-1H-1,2,3-triazol-4-yl)-5-fluoro-1H-indole-2-carboxylate] came in with an inhibition at 1 µM (ATP 10 μM) of 18%. The molecule `COCc1ccccc1-c1ccc(S(=O)(=O)NCCN2CCC(Cn3cc(-c4c(C(=O)OCC(C)C)[nH]c5ccc(F)cc45)nn3)CC2)cc1` [AB1303] yielded an IC50 of 33 nM. On the same count and under the same terms, the value for `CCc1ccc(S(=O)(=O)NCCN2CCC(Cn3cc(-c4c(C(=O)OCCO)[nH]c5ccc(F)cc45)nn3)CC2)cc1` [AB597, 2-Hydroxyethyl 3-(1-((1-(2-((4-ethylphenyl)sulfonamido)ethyl)piperidin-4 yl)methyl)-1H-1,2,3-triazol-4-yl)-5-fluoro-1H-indole-2-carboxylate] was 1600 nM. For the setting “ATP 10 μM”, `CC(C)Cc1ccc(S(=O)(=O)NCCN2CCC(Cn3cc(-c4c(CO)[nH]c5ccc(F)cc45)nn3)CC2)cc1` [AB1405, N-(2-(4-((4-(5-fluoro-2-(hydroxymethyl)-1H-indol-3-yl)-1H-1,2,3-triazol-1-yl)methyl)piperidin-1-yl)ethyl)-4-isobutylbenzenesulfonamide] yielded an inhibition at 0.1 µM of 11%. In turn, `CC(C)COC(=O)c1[nH]c2ccc(F)cc2c1-c1cn(CC2CCN(CCNS(=O)(=O)Cc3ccc(Br)cc3)CC2)nn1` [AB1030, isobutyl 3-(1-((1-(2-(((4-bromophenyl)methyl)sulfonamido)ethyl)piperidin-4-yl)methyl)-1H-1,2,3-triazol-4-yl)-5-fluoro-1H-indole-2-carboxylate] gave an IC50 under setting [1] of 54 nM. In other words, the double-digit nanomolar range. Molecule `CCOC(=O)c1[nH]c2ccc(F)cc2c1-c1cn(CC2CCN(CCNS(=O)(=O)c3ccc(C)cc3)CC2)nn1` [AB504, Ethyl 5-fluoro-3-(1-((1-(2-((4-methylphenyl)sulfonamido)ethyl)piperidin-4-yl)methyl)-1H-1,2,3-triazol-4-yl)-1H-indole-2-carboxylate] showed an IC50 of 1800 nM. The same measure, in the same setting: the value for `CC(C)COC(=O)c1[nH]c2ccc(F)cc2c1-c1cn(CC2CCN(CCNS(=O)(=O)c3ccc(-c4ccccc4N(C)C)cc3)CC2)nn1` [AB1209, isobutyl 3-(1-((1-(2-((2′-(dimethylamino)-[1,1′-biphenyl])-4-sulfonamido)ethyl)piperidin-4-yl)methyl)-1H-1,2,3-triazol-4-yl)-5-fluoro-1H-indole-2-carboxylate] was 70 nM.

For `CCOC(=O)c1[nH]c2ccc(Cl)cc2c1-c1cn(CC2CCN(CCNS(=O)(=O)c3ccc(Cl)cc3)CC2)nn1` [AB460, Ethyl 5-chloro-3-(1-((1-(2-((4-chlorophenyl)sulfonamido)ethyl)piperidin-4-yl)methyl)-1H-1,2,3-triazol-4-yl)-1H-indole-2-carboxylate], the IC50 was determined as 2510 nM. `CC(C)COC(=O)c1[nH]c2ccc(F)cc2c1-c1cn(CC2CCN(CCNS(=O)(=O)c3ccc(-c4ccc(C#N)cc4)cc3)CC2)nn1` [AB1134, isobutyl 3-(1-((1-(2-((4′-cyano-[1,1′-biphenyl])-4-sulfonamido)ethyl)piperidin-4-yl)methyl)-1H-1,2,3-triazol-4-yl)-5-fluoro-1H-indole-2-carboxylate]: the inhibition at 0.1 µM (ATP 10 μM) turned out to be 5%. For the setting “ATP 10 μM”, `CC(C)COC(=O)c1[nH]c2ccc(F)cc2c1-c1cn(CC2CCN(Cc3ccc(-c4cccc5[nH]ccc45)c(Cl)c3)CC2)nn1` [AB690, Isobutyl 3-(1-((1-(3-chloro-4-(1H-indol-4-yl)benzyl)piperidin-4-yl)methyl)-1H-1,2,3-triazol-4-yl)-5-fluoro-1H-indole-2-carboxylate] gave an inhibition at 1 µM of 31%. Still for that read-out and setting: the value for `CC(C)COC(=O)c1[nH]c2ccc(F)cc2c1-c1cn(CC2CCN(S(=O)(=O)N3CCN(Cc4ccccc4)CC3)CC2)nn1` [AB755] was 56%. Same read-out and setting: the value for `CC(C)COC(=O)c1[nH]c2ccc(F)cc2c1-c1cn(CC2CCN(Cc3ccc(OCC(C)C)c(Cl)c3)CC2)nn1` [AB760, Isobutyl 3-(1-((1-(3-chloro-4-isobutoxybenzyl)piperidin-4-yl)methyl)-1H-1,2,3-triazol-4-yl)-5-fluoro-1H-indole-2-carboxylate] was 15%. `CCC(C)C(=O)c1[nH]c2ccc(F)cc2c1-c1cn(CC2CCN(CCNS(=O)(=O)c3ccc(CC(C)C)cc3)CC2)nn1` (stereo not shown) [AB1302, N-(2-(4-((4-(5-fluoro-2-(2-methylbutanoyl)-1H-indol-3-yl)-1H-1,2,3-triazol-1-yl)methyl)piperidin-1-yl)ethyl)-4-isobutylbenzenesulfonamide] came in with an inhibition at 0.1 µM (ATP 10 μM) of 10%. Turning to `CCc1ccc(S(=O)(=O)NCCN2CCC(Cn3cc(-c4c(C(=O)OCC(C)C)[nH]c5ccc(Cl)cc45)nn3)CC2)cc1` [AB557, Isobutyl 5-chloro-3-(1-((1-(2-((4-ethylphenyl)sulfonamido)ethyl)piperidin-4-yl)methyl)-1H-1,2,3-triazol-4-yl)-1H-indole-2-carboxylate], the IC50 was 560 nM. The same measure, in the same setting: the value for `CCOC(=O)c1[nH]c2ccc(Cl)cc2c1-c1cn(CC2CCN(CCNS(=O)(=O)c3ccc4ccccc4c3)CC2)nn1` [AB551, Ethyl 5-chloro-3-(1-((1-(2-(naphthalene-2-sulfonamido)ethyl)piperidin-4-yl)methyl)-111-1,2,3-triazol-4-yl)-1H-indole-2-carboxylate] was 1780 nM. For the molecule `CC(C)CNC(=O)c1[nH]c2ccc(F)cc2c1-c1cn(CC2CCN(CCNS(=O)(=O)c3ccc(C(C)C)cc3)CC2)nn1` [AB652, 5-Fluoro-N-isobutyl-3-(1-((1-(2-((4-isopropylphenyl)sulfonamido)ethyl)piperidin-4-yl)methyl)-1H-1,2,3-triazol-4-yl)-1H-indole-2-carboxamide], the inhibition at 1 µM (ATP 10 μM) amounted to 4%.

Under “ATP 10 μM”, `CC(=O)c1[nH]c2ccc(F)cc2c1-c1cn(CC2CCN(CCNS(=O)(=O)c3ccc(-c4ccccc4F)cc3)CC2)nn1` [AB1390, N-(2-(4-((4-(2-acetyl-5-fluoro-1H-indol-3-yl)-1H-1,2,3-triazol-1-yl)methyl)piperidin-1-yl)ethyl)-2′-fluoro-[1,1′-biphenyl]-4-sulfonamide] returned an inhibition at 0.1 µM of 36%.

In turn, `CC(=O)c1[nH]c2ccc(F)cc2c1-c1cn(CC2CCN(CCNS(=O)(=O)Cc3ccc(C(F)(F)F)cc3)CC2)nn1` [AB1315, N-(2-(4-((4-(2-acetyl-5-fluoro-1H-indol-3-yl)-1H-1,2,3-triazol-1-yl)methyl)piperidin-1-yl)ethyl)-1-(4-(trifluoromethyl)phenyl)methanesulfonamide] gave an inhibition at 0.1 µM (ATP 10 μM) of 27%. In turn, `COc1cccc(OC)c1-c1ccc(S(=O)(=O)NCCN2CCC(Cn3cc(-c4c(C(=O)OCC(C)C)[nH]c5ccc(F)cc45)nn3)CC2)cc1` [AB1206, isobutyl 3-(1-((1-(2-((2′,6′-dimethoxy-[1,1′-biphenyl])-4-sulfonamido)ethyl)piperidin-4-yl)methyl)-1H-1,2,3-triazol-4-yl)-5-fluoro-1H-indole-2-carboxylate] returned an IC50 of 16 nM. As for `CC(C)COC(=O)c1[nH]c2ccc(F)cc2c1-c1cn(CC2CCN(CCNS(=O)(=O)Cc3ccc(Cl)cc3)CC2)nn1` [AB936, isobutyl 3-(1-((1-(2-(((4-chlorophenyl)methyl)sulfonamido)ethyl)piperidin-4-yl)methyl)-1H-1,2,3-triazol-4-yl)-5-fluoro-1H-indole-2-carboxylate], the IC50 under setting [1] was found to be 550 nM. As to `Cc1noc(C)c1-c1ccc(S(=O)(=O)NCCN2CCC(Cn3cc(-c4c(C(=O)OCC(C)C)[nH]c5ccc(F)cc45)nn3)CC2)cc1` [AB1130, isobutyl 3-(1-((1-(2-((4-(3,5-dimethylisoxazol-4-yl)phenyl)sulfonamido)ethyl)piperidin-4-yl)methyl)-1H-1,2,3-triazol-4-yl)-5-fluoro-1H-indole-2-carboxylate], the IC50 is 49 nM. The molecule `CCOC(=O)c1[nH]c2cc(Cl)ccc2c1-c1cn(CC2CCN(CCNS(=O)(=O)c3ccc(C)cc3)CC2)nn1` [AB503, Ethyl 6-chloro-3-(1-((1-(2-((4-methylphenyl)sulfonamido)ethyl)piperidin-4-yl)methyl)-1H-1,2,3-triazol-4-yl)-1H-indole-2-carboxylate] returned an IC50 of 9850 nM. The molecule `CCC(=O)c1[nH]c2ccc(F)cc2c1-c1cn(CC2CCN(CCNS(=O)(=O)Cc3ccc(C(F)(F)F)cc3)CC2)nn1` [AB1417, N-(2-(4-((4-(5-fluoro-2-propionyl-1H-indol-3-yl)-1H-1,2,3-triazol-1-yl)methyl)piperidin-1-yl)ethyl)-1-(4-(trifluoromethyl)phenyl)methanesulfonamide] displayed an IC50 under setting [1] of 120 nM. This counts as sub-micromolar. `COc1ccc(C)cc1-c1ccc(CN2CCC(Cn3cc(-c4c(C(=O)OCC(C)C)[nH]c5ccc(F)cc45)nn3)CC2)cc1Cl` [AB692] gave an inhibition at 1 µM (ATP 10 μM) of 5%.

Molecule `COCc1ccccc1-c1ccc(CN2CCC(Cn3cc(-c4c(C(=O)OCC(C)C)[nH]c5ccc(F)cc45)nn3)CC2)cc1Cl` [AB680, Isobutyl 3-(1-((1-((2-chloro-2′-(methoxymethyl)-[1,1′-biphenyl]-4-yl)methyl)piperidin-4-yl)methyl)-1H-1,2,3-triazol-4-yl)-5-fluoro-1H-indole-2-carboxylate] had an inhibition at 1 µM (ATP 10 μM) of 11%.

On to `CC(C)CCNC(=O)c1[nH]c2ccc(F)cc2c1-c1cn(CC2CCN(CCNS(=O)(=O)c3ccc(C(C)C)cc3)CC2)nn1` [AB671, 5-Fluoro-N-isopentyl-3-(1-((1-(2-((4-isopropylphenyl)sulfonamido)ethyl)piperidin-4-yl)methyl)-1H-1,2,3-triazol-4-yl)-1H-indole-2-carboxamide], for which 1 µM produced 18% inhibition (ATP 10 μM).

One may read the IC50 as the concentration that gives 50% inhibition. Higher therefore signals a need for much substance. A word on the inhibition: it is the drop in the measured response relative to a control, in per cent. Higher therefore signals a response far below the control.
